Laboratory results reported in patent US20100178334A1, “Oral Pharmaceutical Dosage Form Comprising as Active Ingredients a Proton Pump Inhibitor together with Acetyl Salicyclic Acid” (priority 2005, published 2010).

Experiments:
[1] = tested on: damages on the mucosa caused by ASA; settings: concomitant administration for patients treated with ASA; cited from earlier work
[2] = tested on: ulcer complication like bleeding from the stomach or the duodenum; settings: cited from earlier work
[3] = tested on: gastric and/or duodenal ulcers in Helicobacter pylori-negative patients ≧60 years receiving ASA; assay: randomized, multicenter, placebo-controlled trial of esomeprazole 20 mg once daily for 26 weeks in patients receiving ASA; assay type: in vivo, human
Description: Patients were randomized to receive either esomeprazole 20 mg (administered as esomeprazole magnesium, i.e. Nexium® owned by AstraZeneca AB) or placebo once daily for 26 weeks. The primary outcome variable was the presence of gastric and/or duodenal ulcers at endoscopy over the 26-week period. A total of 991 patients, all receiving ASA in doses varying between 75-325 mg/day (57.1% male, mean age 69.3 years, mean acetyl salicylic acid (ASA) dose 124.0 mg/day) were included in the intent-to-treat population. The cumulative proportion of patients without either gastric or duodenal ulcer at 26 weeks was 98.2% with esomeprazole, compared with 93.8% with placebo (life table estimates, p=0.0007). The incidence of gastric ulcers was lower in patients taking esomeprazole than in those taking placebo (1.2% vs. 3.8%), as was the incidence of duodenal ulcers (0.4% and 1.6% for esomeprazole and placebo, respectively). Eight patients (1.6%) had developed an ulcer, in the esomeprazole group by 6 months, compared with 27 patients (5.4%) in the placebo group. This corresponded to a relative reduction of developing an ulcer of 70% when taking esomeprazole rather than placebo. A total of 95.6% of patients treated with esomeprazole had no esophageal lesions at week 26, compared with 81.7% of patients treated with placebo (p<0.0001).

[4] = esomeprazole 20 mg once daily, 26 weeks, patients on ASA

In the case of `Cc1c(OCC(F)(F)F)ccnc1C[S+]([O-])c1nc2ccccc2[nH]1` (stereo not shown) [lansoprazole], the “effect on damages on the mucosa caused by ASA” value [1] is given as “reduce damages on the mucosa caused by ASA”.
For `CC(=O)Oc1ccccc1C(=O)O` [ASA, acetyl salicylic acid], the “relative risk of developing an ulcer complication like bleeding from the stomach or the duodenum” value ([2]; daily dose as low as 75 mg (Weil et al)) is listed as “doubles” and the “hospital admissions due to adverse drug reactions caused by ASA” value ([2]; epidemiological data from the UK (Pirmohamed et al)) is listed as 18%.
With `COc1ccc2nc([S@@+]([O-])Cc3ncc(C)c(OC)c3C)[nH]c2c1` [esomeprazole] the “resolution of investigator-assessed upper gastrointestinal symptoms” value ([3]; all symptoms, versus placebo) was “higher with esomeprazole than with placebo”, the “relative reduction of developing an ulcer when taking esomeprazole rather than placebo” value ([3]; by 6 months, versus placebo) was 70% and the safety and tolerability ([3]; esomeprazole 20 mg once daily for 26 weeks) was “safe and well tolerated”. For the same compound, the “incidence of duodenal ulcers” value [3, 4] was 0.4%, the “incidence of gastric ulcers” value [3, 4] was 1.2% and the “patients who had developed an ulcer by 6 months” value ([3]; esomeprazole 20 mg once daily, patients on ASA, eight patients) was 1.6%. For the same compound, the “proportion of patients without esophageal lesions at 6 months” value ([3]; patients with no lesions and those with Los Angeles grade A lesions at baseline, versus placebo) was “higher with esomeprazole than with placebo”.
